Assay results from publication PMC6375636, “Monotherapy with a low-dose lipopeptide HIV fusion inhibitor maintains long-term viral suppression in rhesus macaques” (PLoS Pathogens, 2019).
Like-named read-outs stand apart in the source and are kept apart here. Peptide text beside a SMILES is read from it. * marks the point of attachment. Stearoyl = CCCCCCCCCCCCCCCCCC(=O)*

What was measured:
[1] = system: HIV-1 pseudovirus, primary Env pREJO4541; format: cell-based; conditions: Env pREJO4541, subtype B; mean ± SD of 3 assays in triplicate
Summary of the method: (§1)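 Inhibition was scored by luciferase after 48 h infection of TZM-bl cells at 37°C, using 100 TCID50 of HEK293T-produced virus preincubated 1 h at room temperature with threefold-diluted compound.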

[2] = system: HIV-1 pseudovirus, primary Env CE703010217_B6; format: cell-based; conditions: Env CE703010217_B6, subtype C; mean ± SD of 3 assays in triplicate
Summary of the method: as §1

HIV-1 NL4-3 = format: cell-based; conditions: Table 2; NL4-3, subtype B, X4; mean ± SD of 3 assays in triplicate
Summary of the method: as §1

[3] = system: HIV-1 pseudovirus, primary Env CH120.6; format: cell-based; conditions: Env CH120.6, subtype B/C; mean ± SD of 3 assays in triplicate
Summary of the method: as §1

[4] = system: HIV-1 pseudovirus, primary Env CNE55; format: cell-based; conditions: Env CNE55, subtype A/E; mean ± SD of 3 assays in triplicate
Summary of the method: as §1

[5] = system: HIV-1 pseudovirus, primary Env CH070.1; format: cell-based; conditions: Env CH070.1, subtype B/C; mean ± SD of 3 assays in triplicate
Summary of the method: as §1

[6] = system: HIV-1 pseudovirus, primary Env CAP45.2.00.G3; format: cell-based; conditions: Env CAP45.2.00.G3, subtype C; mean ± SD of 3 assays in triplicate
Summary of the method: as §1

[7] = system: HIV-1 pseudovirus, primary Env PVO; format: cell-based; conditions: subtype B, mean ± SD of 3 assays in triplicate
Summary of the method: as §1

[8] = system: HIV-1 pseudovirus, primary Env 92UG037.8; format: cell-based; conditions: Env 92UG037.8, subtype A; mean ± SD of 3 assays in triplicate
Summary of the method: as §1

[9] = system: HIV-1 pseudovirus, primary Env BJOX002000.03.2; format: cell-based; conditions: Env BJOX002000.03.2, subtype B/C; mean ± SD of 3 assays in triplicate
Summary of the method: as §1

[10] = system: HIV-1 pseudovirus, primary Env SF162; format: cell-based; conditions: Env SF162, subtype B; mean ± SD of 3 assays in triplicate
Summary of the method: as §1

[11] = system: HIV-1NL4-3(D36G) pseudovirus; format: cell-based
Summary of the method: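 Env-pseudotyped luciferase reporter viruses (pSG3Δenv backbone) made in HEK293T cells. 3-fold inhibitor dilutions preincubated 1 h at room temperature with 100 TCID50 virus before infection. Inhibition read as luciferase activity.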

[12] = target: T1, gp41 NHR-derived target mimic peptide N39 (Human immunodeficiency virus type 1 group M subtype B, UniProt P04578); assay: CD spectroscopy of lipopeptides in complex with target mimic peptide N39; format: binding, HIV-1; design: [θ]222: unit not given here; conditions: complex with N39, each peptide 10 μM in PBS; representative of 2 assays
T1 construct: the gp41 NHR-derived target mimic peptide N39
T1 sequence (P04578 528-566): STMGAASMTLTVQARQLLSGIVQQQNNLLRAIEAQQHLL
Text: Spectra were corrected by subtracting a solvent blank.

HIV-1HXB2 Env = target: T2, HIV-1HXB2 Env (Human immunodeficiency virus type 1 group M subtype B, UniProt P04578); assay: HIV-1HXB2 Env-mediated cell-cell fusion (HL2/3 effector, TZM-bl target, luciferase reporter); format: cell-based
T2 construct: HL2/3 cells, which stably express high levels of Env, Gag, Tat, Rev, and Nef proteins of the integrated HIV-1 molecular clone HXB2/3gpt; host or cells: HL2/3 cells (effector), cocultured with TZM-bl target cells
T2 sequence (P04578 512-856): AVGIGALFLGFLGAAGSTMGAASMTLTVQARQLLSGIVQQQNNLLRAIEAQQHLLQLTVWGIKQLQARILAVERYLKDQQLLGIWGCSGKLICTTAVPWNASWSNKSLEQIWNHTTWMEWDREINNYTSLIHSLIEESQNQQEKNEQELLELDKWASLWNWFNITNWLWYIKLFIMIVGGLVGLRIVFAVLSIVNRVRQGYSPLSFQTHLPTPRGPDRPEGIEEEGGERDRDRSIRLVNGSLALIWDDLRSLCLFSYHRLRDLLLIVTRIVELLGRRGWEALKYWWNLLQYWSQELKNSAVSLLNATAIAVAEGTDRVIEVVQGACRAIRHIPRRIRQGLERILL
Summary of the method: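 TZM-bl target cells (1 x 10^4/well, plated overnight) were cocultured for 6 h at 37°C with HL2/3 effector cells (3 x 10^4/well) plus graded inhibitor concentrations. Fusion was read as tat-driven LTR luciferase activity.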

[13] = lipopeptide alone, 10 μM in PBS, representative of 2 assays
NL4-3V38A pseudovirus = format: cell-based, HIV-1; conditions: T-20 resistant, mean ± SD of 3 assays in triplicate
Procedure: (§2) The inhibitory activities of inhibitors against HIV-1 pseudoviruses and replication-competent isolates were measured as described previously. Briefly, HIV-1 pseudoviruses were generated via the cotransfection of HEK293T cells with an Env-expressing plasmid and a backbone plasmid that encodes Env-defective, luciferase-expressing HIV-1 genome (pSG3Δenv). Viral stocks of replication-competent HIV-1 isolates were generated by transfecting viral molecular clones into HEK293T cells. […] Inhibitors were prepared in 3-fold dilutions, mixed with 100 TCID50 of a virus, and then incubated for 1 h at room temperature. […] Luciferase activity was measured as described above.

NL4-3I37T pseudovirus = format: cell-based, HIV-1; conditions: T-20 resistant, mean ± SD of 3 assays in triplicate
Procedure: as §2

NL4-3V38M pseudovirus = format: cell-based, HIV-1; conditions: T-20 resistant, mean ± SD of 3 assays in triplicate
Procedure: as §2

NL4-3N43K pseudovirus = format: cell-based, HIV-1; conditions: T-20 resistant, mean ± SD of 3 assays in triplicate
Procedure: as §2

[14] = system: NL4-3I37T/N43K pseudovirus; format: cell-based, HIV-1; conditions: T-20 resistant, mean ± SD of 3 assays in triplicate
Procedure: as §2

[15] = system: NL4-3G36S/V38M pseudovirus; format: cell-based, HIV-1; conditions: T-20 resistant, mean ± SD of 3 assays in triplicate
Procedure: as §2

NL4-3Q40H pseudovirus = format: cell-based, HIV-1; conditions: T-20 resistant, mean ± SD of 3 assays in triplicate
Procedure: as §2

## CCCCCCCCCCCCCCCCCC(=O)NCCCC[C@H](NC(=O)[C@H](CCC(=O)O)NC(=O)[C@H](CC(C)C)NC(=O)[C@H](CCCCN)NC(=O)[C@H](CCCCN)NC(=O)[C@H](CC(C)C)NC(=O)[C@H](CCC(=O)O)NC(=O)[C@H](CCC(=O)O)NC(=O)[C@H](CCC(=O)O)NC(=O)[C@H](CC(N)=O)NC(=O)[C@H](CCCCN)NC(=O)[C@H](CCCCN)NC(=O)[C@H](CCC(N)=O)NC(=O)[C@H](CCC(N)=O)NC(=O)[C@H](CCC(=O)O)NC(=O)[C@H](CCC(=O)O)NC(=O)[C@H](C)NC(=O)[C@H](CCCCN)NC(=O)[C@H](CCCCN)NC(=O)[C@H](CC(C)C)NC(=O)[C@H](CC(C)C)NC(=O)[C@H](CCC(=O)O)NC(=O)[C@H](CCC(=O)O)NC(=O)[C@@H](NC(=O)[C@H](CCCCN)NC(=O)[C@H](CCC(N)=O)NC(=O)[C@H](CCC(=O)O)NC(=O)[C@H](Cc1c[nH]c2ccccc12)NC(C)=O)[C@@H](C)CC)C(N)=O [LP-80] (Ac-WEQKIEELLKKAEEQQKKNEEELKKLEK(Stearoyl)-NH2)
[1]
  IC50: 0.0014 ± 0.00061 nM
[2]
  IC50: 0.00572 ± 0.00132 nM
HIV-1 NL4-3
  IC50: 0.00245 ± 0.00051 nM
[3]
  IC50: 0.0106 ± 0.00102 nM
[4]
  IC50: 0.00111 ± 0.00018 nM
[5]
  IC50: 0.0285 ± 0.00063 nM
[6]
  IC50: 0.00169 ± 0.00048 nM
[7]
  IC50: 0.013 ± 0.00167 nM
[8]
  IC50: 0.00372 ± 0.001 nM
[9]
  IC50: 0.00848 ± 8e-05 nM
[10]
  IC50: 0.00312 ± 0.00037 nM
[11]; Fig 1, NL4-3(D36G) pseudovirus, mean ± SD of three assays in triplicate, read-out: Anti-HIV activity (IC50, pM) NL4-3 entry
  IC50: 1.62 pM
[11]; Table 4, NL4-3D36G, T-20 sensitive, mean ± SD of 3 assays in triplicate, value in parentheses behind the bound, read-out: IC50
  IC50: < 10 pM
[12]
  Helix content (%): 57%
  [θ]222: -18955
HIV-1HXB2 Env
  IC50: 0.0126 nM
[13]; [θ]222 / -33,000
  Helix content (%): 52%
[13]; ellipticity at 222 nm, 20-98°C, 2°C/min
  Tm (°C): 56 °C
NL4-3V38A pseudovirus
  IC50: 0.23 ± 0.03 nM
NL4-3I37T pseudovirus
  IC50: 0.05 nM
NL4-3V38M pseudovirus
  IC50: 0.13 ± 0.02 nM
NL4-3N43K pseudovirus
  IC50: 0.25 ± 0.02 nM
[14]
  IC50: 3.79 ± 0.05 nM
[15]
  IC50: 0.07 ± 0.01 nM
NL4-3Q40H pseudovirus
  IC50: 0.13 ± 0.02 nM
